Laboratory results as given in publication PMC7247349, “Reactions of Plasmodium falciparum Ferredoxin:NADP^+ Oxidoreductase with Redox Cycling Xenobiotics: A Mechanistic Study” (International Journal of Molecular Sciences, 2020).

Experiments:
[1] = biological target: T1, Ferredoxin:NADP^+ oxidoreductase (PfFNR) (Plasmodium falciparum, UniProt C6KT68); assay: steady-state kinetics; competitive inhibition versus AcPyP+ in transhydrogenase reaction; stopped-flow FAD reduction; assay type: biochemical
T1 construct: gene FNR; recombinant PfFNR
Text: steady-state kinetics; competitive inhibition versus AcPyP+ in transhydrogenase reaction; stopped-flow FAD reduction on Ferredoxin:NADP^+ oxidoreductase (PfFNR) | NADPH acts as a competitive inhibitor to AcPyP^+, occupying the pyridine nucleotide binding site of the reduced enzyme form

[2] = biological target: T1, Ferredoxin:NADP^+ oxidoreductase (PfFNR); assay: steady-state product inhibition of juglone reductase reaction; assay type: biochemical

T1 sequence (C6KT68 56-371): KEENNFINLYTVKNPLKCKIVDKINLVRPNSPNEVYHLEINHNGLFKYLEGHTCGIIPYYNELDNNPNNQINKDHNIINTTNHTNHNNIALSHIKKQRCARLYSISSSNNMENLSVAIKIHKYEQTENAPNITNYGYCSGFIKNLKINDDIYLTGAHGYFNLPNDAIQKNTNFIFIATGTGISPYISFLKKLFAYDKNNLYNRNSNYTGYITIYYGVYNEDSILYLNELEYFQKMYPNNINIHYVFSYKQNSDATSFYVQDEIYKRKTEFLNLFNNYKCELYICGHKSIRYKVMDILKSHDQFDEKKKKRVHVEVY

SMILES	Ki [1] [µM]	Ki [2] [µM]
NC(=O)C1=CN([C@@H]2O[C@H](COP(=O)(O)OP(=O)(O)OC[C@H]3O[C@@H](n4cnc5c(N)ncnc54)[C@H](OP(=O)(O)O)[C@@H]3O)[C@@H](O)[C@H]2O)C=CC1 [NADPH]	140 ± 20	–
NC(=O)c1ccc[n+]([C@@H]2O[C@H](COP(=O)([O-])OP(=O)(O)OC[C@H]3O[C@@H](n4cnc5c(N)ncnc54)[C@H](OP(=O)(O)O)[C@@H]3O)[C@@H](O)[C@H]2O)c1 [NADP^+]	–	1420 ± 130
